biological target: T1, IGF-1R (Homo sapiens, UniProt P08069); assay: Cellular IGF-1R assay: capture ELISA (MSD) of receptor phosphorylation in Hek293 cells; assay type: cell-based; settings: Hek293-IGF1R cells, 1 h pre-incubation, 10 min IGF stimulation, pIGF1R capture ELISA
T1 construct: expressed in transfected cells; host or cells: Hek293 (Hek293-IGF1R)
Description: (§1) In this assay the activity of the compounds of the invention against Insulin-like growth factor I (IGF-I) induced autophosphorylation of the IGF-IR was determined. The assay was conducted as follows: Compound-mediated inhibition of IGF1R and INSR phosphorylation in Hek293 cells transduced with the corresponding receptors was assessed in a capture ELISA format using the MSD (Meso Scale Discovery) platform. Briefly, 30,000 cells washed and diluted in starvation medium (DMEM high glucose supplemented with 0.1% BSA) were seeded in 90 μL per well into 96-well plates pre-coated with poly-D-lysine (0.1 mg/mL in PBS/O). After 24 h incubation at 37° C. and 5% CO2, dose-response effects were determined with 3-fold serial compound dilutions, starting at 10 μM. The final vehicle concentration is 0.1% DMSO in all wells. Following pre-incubation with compounds for 1 h, receptor phosphorylation was triggered by a 10 min exposure to 1.0 ng/μL IGF for Hek293-IGF1R cells, and 5.0 ng/μL insulin for Hek293-InsR cells. Cell lysis was achieved by addition of 80 μL MSD lysis buffer per aspirated well, incubation on ice for 20 min, and a freeze-thaw cycle. Target phosphorylation was then assessed by transferring volumes corresponding to approx. 6 μg Hek293-IGF1R or 0.6 μg Hek293-InsR lysates to MSD assay plates pre-coated with total-IGF1R or total-InsR Abs, respectively. […] Immune complexes were detected by a SULFO-Tag™-coupled anti-rabbit IgG antibody in the presence of 150 μL MSD read-buffer. Light emission at 620 nm triggered by application of electric current was recorded on a MSD Sectorlmager 6000. Acquired raw data (mean Ru-ECL units) were processed in an Excel analysis template. The plate blank (MSD lysis buffer) was subtracted from all data points. The effect of a particular test compound concentration on receptor phosphorylation was expressed relative to the window defined by ligand-stimulated vs unstimulated control cells (set as 100%). IC50 values [nM] were determined using 4-parametric curve-fitting (XLfit software, V4.3.2).
as §1, with “Compound-mediated” for “In this assay the activity of the compounds of the invention against Insulin-like growth factor I (IGF-I) induced autophosphorylation of the IGF-IR was determined. The assay was conducted as follows: Compound-mediated”, “cells trans-duced” for “cells transduced”, “receptors were” for “receptors was”, “concentration was” for “concentration is”, “for Hek293-IGF1 R” for “for Hek293-IGF1R”, “with total-IGF1 R” for “with total-IGF1R”

T1 sequence (P08069 31-1367): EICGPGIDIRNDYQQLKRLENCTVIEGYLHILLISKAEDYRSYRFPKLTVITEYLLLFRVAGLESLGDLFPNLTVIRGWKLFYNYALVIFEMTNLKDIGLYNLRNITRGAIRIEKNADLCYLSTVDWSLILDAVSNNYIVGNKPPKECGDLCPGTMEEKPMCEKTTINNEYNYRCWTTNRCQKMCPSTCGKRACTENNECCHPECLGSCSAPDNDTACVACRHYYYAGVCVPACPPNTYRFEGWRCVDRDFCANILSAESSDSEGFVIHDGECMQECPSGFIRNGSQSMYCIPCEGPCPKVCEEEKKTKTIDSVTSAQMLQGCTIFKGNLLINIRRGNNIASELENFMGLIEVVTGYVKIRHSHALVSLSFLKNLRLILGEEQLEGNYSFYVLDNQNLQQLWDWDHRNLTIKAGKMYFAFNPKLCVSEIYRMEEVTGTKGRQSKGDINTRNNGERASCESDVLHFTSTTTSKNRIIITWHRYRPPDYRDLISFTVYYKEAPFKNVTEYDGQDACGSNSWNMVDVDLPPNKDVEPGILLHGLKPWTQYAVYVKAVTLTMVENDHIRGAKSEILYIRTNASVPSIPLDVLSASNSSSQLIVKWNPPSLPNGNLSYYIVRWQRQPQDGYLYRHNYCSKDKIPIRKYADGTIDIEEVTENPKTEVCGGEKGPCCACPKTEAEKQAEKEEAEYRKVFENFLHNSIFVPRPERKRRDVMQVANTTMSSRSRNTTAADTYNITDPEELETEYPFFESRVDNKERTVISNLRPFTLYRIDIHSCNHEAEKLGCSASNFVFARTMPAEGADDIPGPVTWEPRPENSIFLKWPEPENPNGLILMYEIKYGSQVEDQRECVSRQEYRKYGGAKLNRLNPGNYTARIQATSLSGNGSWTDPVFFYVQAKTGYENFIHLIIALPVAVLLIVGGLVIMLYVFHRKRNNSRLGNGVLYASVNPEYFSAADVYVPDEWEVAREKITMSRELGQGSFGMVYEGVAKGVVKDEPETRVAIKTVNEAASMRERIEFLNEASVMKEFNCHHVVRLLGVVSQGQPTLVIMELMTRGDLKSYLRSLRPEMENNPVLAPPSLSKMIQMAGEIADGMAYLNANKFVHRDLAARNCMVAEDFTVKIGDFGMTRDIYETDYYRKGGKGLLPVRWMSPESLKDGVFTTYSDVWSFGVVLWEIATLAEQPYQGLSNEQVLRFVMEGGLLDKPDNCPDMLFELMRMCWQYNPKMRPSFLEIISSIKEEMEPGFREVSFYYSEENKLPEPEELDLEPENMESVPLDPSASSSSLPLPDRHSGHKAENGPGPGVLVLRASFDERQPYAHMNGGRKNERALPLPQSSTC

Compound | IC50 [µM]
N#Cc1ccnc(N[C@H]2CC[C@@H](n3cc(-c4cccc(OCC56CCC(CC5)O6)c4)c4c(N)ncnc43)CC2)c1 [Example 145, 2-((1S,4S)-4-(5-(3-(7-oxabicyclo[2.2.1]heptan-1-ylmethoxy)phenyl)-4-amino-7H-pyrrolo[2,3-d]pyrimidin-7-yl)cyclohexylamino)isonicotinonitrile] | 0.229
CC1(C)CCC(COc2cccc(-c3cn([C@H]4C[C@@H](CN5CCC(F)(F)CC5)C4)c4ncnc(N)c34)c2)O1 (single isomer, unassigned) [Example 54] | 0.045 to 0.12
Nc1ncnc2c1c(-c1cccc(OCC34CCC(CC3)O4)c1)cn2C1CC(O)(CN2CCC(O)CC2)C1 (stereo not shown) [Example 192, 1-(3-{4-Amino-5-[3-(7-oxa-bicyclo[2.2.1]hept-1-ylmethoxy)-phenyl]-pyrrolo[2,3-d]pyrimidin-7-yl}-1-hydroxy-cyclobutylmethyl)-piperidin-4-ol] | 0.063
NC(=O)[C@H]1CCCN1CC1(O)CC(n2cc(-c3cccc(OCC45CCC(CC4)O5)c3)c3c(N)ncnc32)C1 (stereo partly drawn) [Example 212, (R)-(E)-1-(3-{4-Amino-5-[3-(7-oxa-bicyclo[2.2.1]hept-1-ylmethoxy)-phenyl]-pyrrolo[2,3-d]pyrimidin-7-yl}-1-hydroxy-cyclobutylmethyl)-pyrrolidine-2-carboxylic acid amide] | 0.312
NC(=O)[C@@H]1COCCN1C[C@H]1C[C@@H](n2cc(-c3cccc(OCC4CCCCO4)c3)c3c(N)ncnc32)C1 (stereo partly drawn) [Example 96, (3S)-cis-4-((3-(4-amino-5-(3-((tetrahydro-2H-pyran-2-yl)methoxy)phenyl)-7H-pyrrolo[2,3-d]pyrimidin-7-yl}-cyclobutyl)methyl)morpholine-3-carboxamide] | 0.059
Nc1ncnc2c1c(-c1cccc(OCC34CCC(CC3)O4)c1)cn2C1CC(O)(CN2CCC(O)C2)C1 (single isomer, unassigned) [Example 207] | 0.327
Nc1ncnc2c1c(-c1cccc(OCC34CCC(CC3)O4)c1)cn2[C@H]1CC[C@H](N)CC1 (relative stereo) [Example 182, 7-(trans-4-Amino-cyclohexyl)-5-[3-(7-oxa-bicyclo[2.2.1]hept-1-ylmethoxy)-phenyl]-7H-pyrrolo[2,3-d]pyrimidin-4-ylamine] | 0.211
Nc1ncnc2c1c(-c1cccc(OCC34CCC(CC3)O4)c1)cn2C1CC(CN2CC[C@@H](O)C2)C1 (stereo partly drawn) [Example 213, (R)-1-(3-{4-Amino-5-[3-(7-oxa-bicyclo[2.2.1]hept-1-ylmethoxy)-phenyl]-pyrrolo[2,3-d]pyrimidin-7-yl}-cyclobutylmethyl)-pyrrolidin-3-ol] | 0.015
NC(=O)C1C2CCC(C2)N1CC1CC(n2cc(-c3cccc(OCC4CCCCO4)c3)c3c(N)ncnc32)C1 [Example 95, (1R,3R,45)-2-(((1s, 3S)-3-(4-amino-5-(3-((tetrahydro-2H-pyran-2-yl)methoxy)phenyl)-7H-pyrrolo[2,3-d]pyrimidin-7-yl)cyclobutyl)methyl)-2-azabicyclo[2.2.1]heptane-3-carboxamide] | 0.219
CN1CCN([C@H]2CC[C@@H](n3cc(-c4cccc(OCC5CCC(C)(C)O5)c4)c4c(N)ncnc43)CC2)CC1 (relative stereo) [Example 63, 5-[3-(5,5-dimethyl-tetrahydro-furan-2-ylmethoxy)-phenyl]-7-[cis-4-(4-methyl-piperazin-1-yl)-cyclohexyl]-7H-pyrrolo[2,3-d]pyrimidin-4-ylamine] | 0.061
CN1CCN([C@H]2CC[C@@H](n3cc(-c4cccc(OCC56CCC(CC5)O6)c4)c4c(N)ncnc43)CC2)CC1=O [Example 143, 4-((1S,4S)-4-(5-(3-(7-oxabicyclo[2.2.1]heptan-1-ylmethoxy)phenyl)-4-amino-7H-pyrrolo[2,3-d]pyrimidin-7-yl)cyclohexyl)-1-methylpiperazin-2-one] | 0.319 to 0.534
Nc1ncnc2c1c(-c1cccc(OCC34CCC(CC3)O4)c1)cn2C1CC(O)(CN2CCCC2CO)C1 (single isomer, unassigned) [Example 211] | 0.224
Nc1ncnc2c1c(-c1cccc(OCC34CCC(CC3)O4)c1)cn2[C@H]1C[C@@H](N2CCS(=O)(=O)CC2)C1 (relative stereo) [Example 230, 7-[cis-3-(1,1-dioxo-thiomorpholin-4-yl)-cyclobutyl]-5-[3-(7-oxa-bicyclo[2.2.1]hept-1-ylmethoxy)-phenyl]-7H-pyrrolo[2,3-d]pyrimidin-4-ylamine] | 0.017
CC1(C)CCC(COc2cccc(-c3cn([C@H]4C[C@@H](CN5CCC(F)CC5)C4)c4ncnc(N)c34)c2)O1 (single isomer, unassigned) [Example 59, 7-[cis-3-(4-fluoro-piperidin-1-ylmethyl)-cyclobutyl]-5-[3-(5,5-dimethyl-tetrahydro-furan-2-ylmethoxy)-phenyl]-7H-pyrrolo[2,3-d]pyrimidin-4-ylamine] | 0.018
[2H]C([2H])(Oc1cccc(-c2cn([C@H]3C[C@@H](CN4CCS(=O)(=O)CC4)C3)c3ncnc(N)c23)c1)C12CCC(CC1)O2 [Example 159, d2-7-[cis-3-(1,1-dioxo-1-thiomorpholin-4-ylmethyl)-cyclobutyl]-5-[3-(7-oxa-bicyclo[2.2.1]hept-1-ylmethoxy)-phenyl]-7H-pyrrolo[2,3-d]pyrimidin-4-ylamine] | 0.007 to 0.014
Nc1ncnc2c1c(-c1cccc(OCC34CCC(CC3)O4)c1)cn2C1CC(O)(CN2CCC(O)C2)C1 (single isomer, unassigned) [Example 206] | 0.288
Nc1ncnc2c1c(-c1cccc(OCC34CCC(CC3)O4)c1)cn2C1CCC2(CC1)CNC(=O)O2 (stereo not shown) [Example 139, 8-(5-(3-(7-oxabicyclo[2.2.1]heptan-1-ylmethoxy)phenyl)-4-amino-7H-pyrrolo[2,3-d]pyrimidin-7-yl)-1-oxa-3-azaspiro[4.5]decan-2-one] | 0.543
NC[C@]1(O)C[C@H](n2cc(-c3cccc(OCC45CCC(CC4)O5)c3)c3c(N)ncnc32)C1 [Example 201] | 0.478
CC1(C)CCC(COc2cccc(-c3cn(C4CC(CN5CCC(F)C5)C4)c4ncnc(N)c34)c2)O1 (single isomer, unassigned) [Example 39] | 0.224
Nc1ncnc2c1c(-c1cccc(OCC34CCC(CC3)O4)c1)cn2[C@H]1C[C@@](O)(CN2CCS(=O)(=O)CC2)C1 [Example 205, (E)-3-{4-Amino-5-[3-(7-oxa-bicyclo[2.2.1]hept-1-ylmethoxy)-phenyl]-pyrrolo[2,3-d]pyrimidin-7-yl}-1-(1,1-dioxo-1lambda*6*-thiomorpholin-4-ylmethyl)-cyclobutanol] | 0.014
CC1(C)CCC(COc2cccc(-c3cn([C@H]4C[C@@H](CN5CCSC5)C4)c4ncnc(N)c34)c2)O1 (relative stereo) [Example 70, 5-[3-(5,5-dimethyl-tetrahydro-furan-2-ylmethoxy)-phenyl]-7-(cis-3-thiazolidin-3-ylmethyl-cyclobutyl)-7H-pyrrolo[2,3-d]pyrimidin-4-ylamine] | 0.059
Nc1ncnc2c1c(-c1cccc(OCC34CCC(CC3)O4)c1)cn2C1CC(CN2CCS(=O)(=O)CC2)C1 (stereo not shown) [Example 24, 7-[3-(1,1-dioxo-1-thiomorpholin-4-ylmethyl)-cyclobutyl]-5-[3-(7-oxa-bicyclo[2.2.1]hept-1-ylmethoxy)-phenyl]-7H-pyrrolo[2,3-d]pyrimidin-4-ylamine] | 0.0039 to 0.004
